Test results taken from PubChem BioAssay AID1918934 (Molecular Pharmacology Branch, DTP, NCI, 2023).

Test system: 292921-168-R-J2-PDC complex spheroid viability
Assay: Anticancer human tumor 292921-168-R-J2-PDC patient-derived pancreatic carcinoma cell line growth inhibition
Conditions: for IC50: curve of first compound; for viability, T/C: stronger effect = lower value
Outline: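 Drug combinations with the LSD1 inhibitor iadademstat tested on tumor cells co-cultured as spheroids with endothelial cells and mesenchymal stem cells. Concentrations descended in half-log increments from clinical Cmax or 10 microM.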

[1] = second compound 0.1 µM, first compound 0.00949 µM
[2] = second compound 0.1 µM, first compound 0.03 µM
[3] = second compound 0.1 µM, first compound 0.0949 µM
[4] = second compound 0.1 µM, first compound 0.3 µM
[5] = second compound 0.1 µM, first compound 0.949 µM
[6] = second compound 0.1 µM, first compound 3 µM
[7] = second compound 0.316 µM, first compound 0.00949 µM
[8] = second compound 0.316 µM, first compound 0.03 µM
[9] = second compound 0.316 µM, first compound 0.0949 µM
[10] = second compound 0.316 µM, first compound 0.3 µM
[11] = second compound 0.316 µM, first compound 0.949 µM
[12] = second compound 0.316 µM, first compound 3 µM
[13] = second compound 1 µM, first compound 0.00949 µM
[14] = second compound 1 µM, first compound 0.03 µM
[15] = second compound 1 µM, first compound 0.0949 µM
[16] = second compound 1 µM, first compound 0.3 µM
[17] = second compound 1 µM, first compound 0.949 µM
[18] = second compound 1 µM, first compound 3 µM
[19] = second compound 3.16 µM, first compound 0.00949 µM
[20] = second compound 3.16 µM, first compound 0.03 µM
[21] = second compound 3.16 µM, first compound 0.0949 µM
[22] = second compound 3.16 µM, first compound 0.3 µM
[23] = second compound 3.16 µM, first compound 0.949 µM
[24] = second compound 3.16 µM, first compound 3 µM
[25] = second compound 10 µM, first compound 0.00949 µM
[26] = second compound 10 µM, first compound 0.03 µM
[27] = second compound 10 µM, first compound 0.0949 µM
[28] = second compound 10 µM, first compound 0.3 µM
[29] = second compound 10 µM, first compound 0.949 µM
[30] = second compound 10 µM, first compound 3 µM
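Note: seven day compound exposure before luminescent viability read.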
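Throughout, for viability, T/C: 100% = DMSO vehicle control wells.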

## NS(=O)(=O)OCC1CC(n2ccc3c(NC4CCc5ccccc54)ncnc32)CC1O (stereo not given) + NC1CC1c1ccc(-c2cccc(O)c2)cc1
Second compound 0.1 µM
  IC50: 17.4 nM
Second compound 0.316 µM
  IC50: 17.3 nM
Second compound 1 µM
  IC50: 17.4 nM
Second compound 3.16 µM
  IC50: 17.9 nM
Second compound 10 µM
  IC50: 16.4 nM
[1]
  viability, T/C: 87.4%
[2]
  viability, T/C: 16.4%
[3]
  viability, T/C: 5.35%
[4]
  viability, T/C: 2.15%
[5]
  viability, T/C: 2.62%
[6]
  viability, T/C: 1.96%
[7]
  viability, T/C: 86.8%
[8]
  viability, T/C: 16%
[9]
  viability, T/C: 5.14%
[10]
  viability, T/C: 2.21%
[11]
  viability, T/C: 1.99%
[12]
  viability, T/C: 2.75%
[13]
  viability, T/C: 89.1%
[14]
  viability, T/C: 14.7%
[15]
  viability, T/C: 4.08%
[16]
  viability, T/C: 2.39%
[17]
  viability, T/C: 2.73%
[18]
  viability, T/C: 2.93%
[19]
  viability, T/C: 91%
[20]
  viability, T/C: 16.4%
[21]
  viability, T/C: 5.76%
[22]
  viability, T/C: 2.49%
[23]
  viability, T/C: 3.17%
[24]
  viability, T/C: 2.38%
[25]
  viability, T/C: 76.1%
[26]
  viability, T/C: 21.5%
[27]
  viability, T/C: 5.5%
[28]
  viability, T/C: 2.88%
[29]
  viability, T/C: 2.28%
[30]
  viability, T/C: 2.43%

## Nc1ccccc1NC(=O)c1ccc(CNC(=O)OCc2cccnc2)cc1 + NC1CC1c1ccc(-c2cccc(O)c2)cc1
Second compound 0.1 µM
  IC50: 29.5 nM
Second compound 0.316 µM
  IC50: < 9.49 nM
Second compound 1 µM
  IC50: 12.4 nM
Second compound 3.16 µM
  IC50: < 9.49 nM
Second compound 10 µM
  IC50: < 9.49 nM
[1]
  viability, T/C: 60.9%
[2]
  viability, T/C: 49%
[3]
  viability, T/C: 34.9%
[4]
  viability, T/C: 19.9%
[5]
  viability, T/C: 4.91%
[6]
  viability, T/C: 0.29%
[7]
  viability, T/C: 48.2%
[8]
  viability, T/C: 42.1%
[9]
  viability, T/C: 31.2%
[10]
  viability, T/C: 19.6%
[11]
  viability, T/C: 4.68%
[12]
  viability, T/C: 0.3%
[13]
  viability, T/C: 53.6%
[14]
  viability, T/C: 38.6%
[15]
  viability, T/C: 33.7%
[16]
  viability, T/C: 18.6%
[17]
  viability, T/C: 4.33%
[18]
  viability, T/C: 0.19%
[19]
  viability, T/C: 47.7%
[20]
  viability, T/C: 38.8%
[21]
  viability, T/C: 29.6%
[22]
  viability, T/C: 18.9%
[23]
  viability, T/C: 3.78%
[24]
  viability, T/C: 0.25%
[25]
  viability, T/C: 41.9%
[26]
  viability, T/C: 43.8%
[27]
  viability, T/C: 30.1%
[28]
  viability, T/C: 19%
[29]
  viability, T/C: 3.97%
[30]
  viability, T/C: 0.74%

## O=C(C=Cc1cccc(S(=O)(=O)Nc2ccccc2)c1)NO + NC1CC1c1ccc(-c2cccc(O)c2)cc1
Second compound 0.1 µM
  IC50: 29.8 nM
Second compound 0.316 µM
  IC50: < 9.49 nM
Second compound 1 µM
  IC50: 11.7 nM
Second compound 3.16 µM
  IC50: 11.9 nM
Second compound 10 µM
  IC50: < 9.49 nM
[1]
  viability, T/C: 59.3%
[2]
  viability, T/C: 48.9%
[3]
  viability, T/C: 34.9%
[4]
  viability, T/C: 25.2%
[5]
  viability, T/C: 1.42%
[6]
  viability, T/C: 0.23%
[7]
  viability, T/C: 52.5%
[8]
  viability, T/C: 42.6%
[9]
  viability, T/C: 38.6%
[10]
  viability, T/C: 24.9%
[11]
  viability, T/C: 1.57%
[12]
  viability, T/C: 0.46%
[13]
  viability, T/C: 54.4%
[14]
  viability, T/C: 43.4%
[15]
  viability, T/C: 40.3%
[16]
  viability, T/C: 22.8%
[17]
  viability, T/C: 0.74%
[18]
  viability, T/C: 0.53%
[19]
  viability, T/C: 52.1%
[20]
  viability, T/C: 45.7%
[21]
  viability, T/C: 35.7%
[22]
  viability, T/C: 22.8%
[23]
  viability, T/C: 0.66%
[24]
  viability, T/C: 0.11%
[25]
  viability, T/C: 45.2%
[26]
  viability, T/C: 36.9%
[27]
  viability, T/C: 31.8%
[28]
  viability, T/C: 18.7%
[29]
  viability, T/C: 0.41%
[30]
  viability, T/C: 0.15%
